Reference: article PMC10969377, “N-3-Methylbutyl-benzisoselenazol-3(2H)-one Exerts Antifungal Activity In Vitro and in a Mouse Model of Vulvovaginal Candidiasis” (Current Issues in Molecular Biology, 2024)

Biological target: T1, Na+, K+-ATPase (Sus scrofa, UniProt P05024)
T1 construct: gene ATP1A1; purified from pig kidney outer medulla
Test: Na+,K+-ATPase activity inhibition, enzyme purified from pig kidney (Figure S4)
Format: biochemical

SMILES | Na+,K+-ATPase activity inhibition, enzyme purified from pig kidney (Figure S4)
CC(C)CCn1[se]c2ccccc2c1=O [N-3mb-bs, N-3-methylbutyl-benzisoselenazol-3(2H)-one] | both N-allyl-bs and N-3mb-bs showed Na^+, K^+-ATPase inhibitory activity (purified from pig kidney outer medulla)
C=CCn1[se]c2ccccc2c1=O [N-allyl-bs, N-allyl-benzisoselenazol-3(2H)-one] | both N-allyl-bs and N-3mb-bs showed Na^+, K^+-ATPase inhibitory activity (purified from pig kidney outer medulla)
